Measured values published in patent EP2518071A1, “Imidazopyridine derivatives as PI3K inhibitors” (Almirall, S.A., priority 2011, dated 2012).

target: T1, PI3Kδ (PI3Kd) (Homo sapiens, UniProt O00329); assay: PI3K HTRF enzymatic inhibition assay (cell-free, Millipore kit), PI3Kd isoform; type: biochemical; details: recombinant PI3Kd 0.60 nM, PIP2 2 µM, ATP 20 µM, incubation 8 minutes
T1 construct: purchased Millipore
Protocol: Compounds were screened for their ability to inhibit PI3Kα (PI3Ka), PI3Kβ (PI3Kb), PI3Kδ (PI3Kd) and PI3Kγ (PI3Kg) using a cell-free based P13K HTRF™ assay (Millipore, ref. #33-017) All reagents to perform the reactions were prepared according to the manufacturer protocol. All PI3K enzymes were recombinant and were purchased at Millipore.
All four assays were performed according to the following procedure: • 1) Dilution curves of compounds were done in 100% DMSO and dispensed in a reservoir plate, typically from column 2 to 11. Column 1 and 12 were used for the negative controls (100% inhibition using a reference PI3K inhibitor for the four isoforms) and the positive controls (0% inhibition using dimethyl sulfoxide (DMSO) only). • 2) Mix of Phosphoinositide 3-kinase (PI3K) + Phosphatidylinositol 4,5-bisphosphate (PIP2) was diluted in buffer (supplied with the kit) and plated in a medium binding black 96-well plate (Greiner ref. #675076) PI3Ka was diluted at 0.25 nM with PIP2 at 2 µM; PI3Kb was diluted at 0.50 nM with PIP2 at 5 µM; PI3Kd was diluted at 0.60 nM with PIP2 at 2 µM and PI3Kg was diluted at 0.30 nM with PIP2 at 10 µM. These concentrations were final in the assay. • 3) A reservoir plate containing Adenosine TriPhosphate (ATP) diluted in the Millipore kit buffer was prepared for each isoform. The final concentration of ATP in the assay was 10 µM, 15 µM, 20 µM and 10 µM for PI3Ka, PI3Kb, PI3Kd and PI3Kg respectively. • 4) Reactions were started by addition to the PI3K+PIP2 plates of the ATP and compounds simultaneously. Incubation was done for 8 minutes (for all four isoforms) then the reaction was stopped by addition of the Stop solution. The Detection solution was added. These solutions were prepared previously according to the kit specifications. The plates were then incubated overnight at RT before reading the signal in an Envision (PerkinElmer), with excitation at 340 nm and emissions at 620 and 665 nm. • 5) Data obtained from the compound curves were normalized in respect to the negative and positive controls, and then fitted by a 4-parameter log curve in ActivityBase (IDBS) in order to determine their potency.

T1 sequence (O00329 whole entry, canonical isoform): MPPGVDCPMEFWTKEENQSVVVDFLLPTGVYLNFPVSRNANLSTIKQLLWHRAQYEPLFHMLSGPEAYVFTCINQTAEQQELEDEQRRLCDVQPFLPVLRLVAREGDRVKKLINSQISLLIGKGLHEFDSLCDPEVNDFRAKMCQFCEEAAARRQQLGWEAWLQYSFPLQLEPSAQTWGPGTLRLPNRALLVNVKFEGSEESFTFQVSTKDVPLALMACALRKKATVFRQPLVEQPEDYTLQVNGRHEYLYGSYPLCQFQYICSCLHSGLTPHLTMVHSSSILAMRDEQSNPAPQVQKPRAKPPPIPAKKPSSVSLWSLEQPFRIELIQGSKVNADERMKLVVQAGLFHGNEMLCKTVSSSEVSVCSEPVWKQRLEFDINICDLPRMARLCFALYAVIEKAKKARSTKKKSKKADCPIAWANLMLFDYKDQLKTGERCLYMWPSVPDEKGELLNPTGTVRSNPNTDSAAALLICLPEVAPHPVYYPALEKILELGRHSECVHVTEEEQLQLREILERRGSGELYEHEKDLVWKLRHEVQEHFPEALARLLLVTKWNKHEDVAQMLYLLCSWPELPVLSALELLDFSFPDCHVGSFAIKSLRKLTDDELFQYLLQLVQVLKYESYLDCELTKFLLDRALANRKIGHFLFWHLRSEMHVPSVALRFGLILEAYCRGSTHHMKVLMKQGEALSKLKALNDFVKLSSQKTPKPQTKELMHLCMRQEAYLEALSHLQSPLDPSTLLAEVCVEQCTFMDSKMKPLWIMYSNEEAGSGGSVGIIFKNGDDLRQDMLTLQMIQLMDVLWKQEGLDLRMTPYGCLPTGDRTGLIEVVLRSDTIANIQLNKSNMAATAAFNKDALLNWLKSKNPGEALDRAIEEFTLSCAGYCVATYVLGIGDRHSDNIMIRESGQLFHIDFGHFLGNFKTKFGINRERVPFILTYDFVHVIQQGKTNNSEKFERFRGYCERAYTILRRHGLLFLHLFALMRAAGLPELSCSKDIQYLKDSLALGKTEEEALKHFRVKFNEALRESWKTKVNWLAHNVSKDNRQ
T1 sequence (P27986 whole entry partner, canonical isoform): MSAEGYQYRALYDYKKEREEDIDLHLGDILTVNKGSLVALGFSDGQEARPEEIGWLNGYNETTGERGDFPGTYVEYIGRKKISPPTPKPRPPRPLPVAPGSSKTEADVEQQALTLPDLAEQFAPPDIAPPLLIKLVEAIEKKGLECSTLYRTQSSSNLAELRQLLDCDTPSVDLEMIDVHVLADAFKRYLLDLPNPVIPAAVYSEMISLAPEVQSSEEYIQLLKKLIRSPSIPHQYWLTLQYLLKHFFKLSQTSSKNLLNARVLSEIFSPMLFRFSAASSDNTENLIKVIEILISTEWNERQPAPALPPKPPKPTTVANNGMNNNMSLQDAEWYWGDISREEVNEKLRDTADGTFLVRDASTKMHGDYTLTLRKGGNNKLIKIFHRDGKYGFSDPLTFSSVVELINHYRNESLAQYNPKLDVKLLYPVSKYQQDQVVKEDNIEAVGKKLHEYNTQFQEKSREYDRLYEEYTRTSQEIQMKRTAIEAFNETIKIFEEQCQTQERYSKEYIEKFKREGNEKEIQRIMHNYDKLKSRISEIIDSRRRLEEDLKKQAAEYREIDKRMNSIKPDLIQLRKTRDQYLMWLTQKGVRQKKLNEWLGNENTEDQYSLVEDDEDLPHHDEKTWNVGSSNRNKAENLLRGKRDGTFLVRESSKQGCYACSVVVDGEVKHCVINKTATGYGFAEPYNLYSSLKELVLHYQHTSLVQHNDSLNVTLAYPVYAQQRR

IC50 | Structure (SMILES)
0.0859 µM | C[C@H](Nc1nc(N)nc2[nH]cnc12)c1nc2cccnc2n1-c1ccccc1 [Example 9, (S)-N6-(1-(3-Phenyl-3H-imidazo[4,5-b]pyridin-2-yl)ethyl)-9H-purine-2,6-diamine]
0.0316 µM | COc1ccc2nc([C@H](C)Nc3ncnc4[nH]cnc34)n(-c3ccccc3)c2n1 [Example 10, (S)-N-(1-(5-Methoxy-3-phenyl-3H-imidazo[4,5-b]pyridin-2-yl)ethyl)-9H-purin-6-amine]
0.188 µM | C[C@H](Nc1ncnc2[nH]cnc12)c1nc2cccnc2n1-c1cc(F)cc(F)c1 [Example 12, (S)-N-(1-(3-(3,5-Difluorophenyl)-3H-imidazo[4,5-b]pyridin-2-yl)ethyl)-9H-purin-6-amine]
0.0144 µM | CC[C@H](Nc1ncnc2[nH]cnc12)c1nc2ccc(OC)nc2n1-c1ccccc1 [Example 14, (S)-N-(1-(5-Methoxy-3-phenyl-3H-imidazo[4,5-b]pyridin-2-yl)propyl)-9H-purin-6-amine]
0.0109 µM | COc1ccc2nc([C@H](C)Nc3ncnc4[nH]cnc34)n(-c3cc(F)cc(F)c3)c2n1 [Example 15, (S)-N-(1-(3-(3,5-Difluorophenyl)-5-methoxy-3H-imidazo[4,5-b]pyridin-2-yl)ethyl)-9H-purin-6-amine]
0.132 µM | C[C@H](Nc1ncnc(N)c1C#N)c1nc2cccnc2n1-c1ccccc1 [Example 19, (S)-4-Amino-6-(1-(3-phenyl-3H-imidazo[4,5-b]pyridin-2-yl)ethylamino)pyrimidine-5-carbonitrile]
0.0222 µM | COc1ccc2nc([C@H](C)Nc3ncnc(N)c3C#N)n(-c3ccccc3)c2n1 [Example 21, (S)-4-Amino-6-(1-(5-methoxy-3-phenyl-3H-imidazo[4,5-b]pyridin-2-yl)ethylamino)pyrimidine-5-carbonitrile]
0.0521 µM | Cc1ccc2nc([C@H](C)Nc3ncnc(N)c3C#N)n(-c3ccccc3)c2n1 [Example 25, (S)-4-Amino-6-(1-(5-methyl-3-phenyl-3H-imidazo[4,5-b]pyridin-2-yl)ethylamino)pyrimidine-5-carbonitrile]
0.693 µM | Cc1ccc2nc([C@H](C)Nc3ccnc4ccnn34)n(-c3ccccc3)c2n1 [Example 26, (S)-N-(1-(5-Methyl-3-phenyl-3H-imidazo[4,5-b]pyridin-2-yl)ethyl)pyrazolo[1,5-a]pyrimidin-7-amine]
0.165 µM | C[C@H](Nc1ncnc2[nH]cnc12)c1nc2cc(F)cnc2n1-c1ccccc1 [Example 37, N-[(1S)-1-(6-Fluoro-3-phenyl-3H-imidazo[4,5-b]pyridin-2-yl)ethyl]-9H-purin-6-amine]
0.215 µM | C[C@H](Nc1ncnc2[nH]cnc12)c1nc2cccnc2n1-c1ccccc1Cl [Example 39, N-{(1S)-1-[3-(2-Chlorophenyl)-3H-imidazo[4,5-b]pyridin-2-yl]ethyl}-9H-purin-6-amine]
1.8 µM | C[C@H](Nc1ncnc2[nH]cnc12)c1nc2ncccc2n1-c1ccccc1 [Example 43, (S)-N-(1-(1-Phenyl-1H-imidazo[4,5-b]pyridin-2-yl)ethyl)-9H-purin-6-amine]
